Measured values from US6762197B2 (priority 1999, dated 2004).

Legend:
Sphaerotheca fuliginea = Sphaerotheca fuliginea control effect test (Test Example 6, large-volume foliar spray on cucumber); format: in vivo; settings: 200 ppm, flowable (Formulation Example 6), sprayed on cucumber (SAGAMI HANJIRO) before inoculation, 12 days at 23° C.
Protocol: Test Examples 1 to 6 are tests using a large amount (about 2000 L/ha) of spray on plants, and the extent of spraying is so that the whole surface of a plant body is completely wet and the sprayed liquid drips.
(§1) In the following tests, compounds of the invention are represented by compound numbers described in Tables 1 to 8. The control effect of a compound of the invention was evaluated by visually observing the area of a lesion on a sample plant in investigation and comparing the area of a lesion in a non-treatment district and the area of a lesion in a districts treated with the compound of the invention.
Sand loam was compacted in a plastic pot, a cucumber (SAGAMI HANJIRO) was seeded and grown in a green house for 12 days. Then, the Compound 1 was formulated into flowable fomulation according the Formulation Example 6, then, diluted with water to provide given concentration (200 ppm), and this was sprayed onto stems and leaves so as to give sufficient adhesion on the surface of cucumber leaves. After spraying, the plant was air-dried, and Sphaerotheca fuliginea spores were inoculated. After inoculation, the plant was first left for 12 days at 23° C., then, the control effect was checked.

Puccinia striiformis = Puccinia striiformis control test (Test Example 8, small-volume spray 200 L/ha on wheat); format: in vivo; settings: 1000 ppm, emulsifiable formulation (Formulation Example 7), spray amount corresponding to 200 L/ha, wheat (NORIN No. 73), 1 day dark high humidity at 23° C. then 6 days under illumination
Text: (§2) Test Examples 7 and 8 are tests using a small amount (corresponding 200 L/ha) of spray on plants, in which fine small liquid drops of a spray are uniformly adhere to the surface of a plant body and the extent of spraying is insufficient to for complete wetting of the surface of a plant body.
(§3) Controlling on a wheat disease in a field is so conducted in some cases that the spray liquid amount is about 200 L/ha. In this case, the amount of the sprayed liquid is insufficient for wetting of the whole plant body, and the sprayed liquid is adheres on a plant as fine liquid drops. For exerting high control effect on the subject diseases even under such spray condition, suitable physicochemical properties such as permeation transfer property, volatility and the like are required in addition to a basic effect.
as §1
(§4) Sand loam was compacted in a plastic pot, a wheat (NORIN No. 73) was seeded and grown in a green house for 10 days. […]

Erysiphe graminis = Erysiphe graminis control effect test (Test Example 7, small-volume spray 200 L/ha on wheat); format: in vivo; settings: 1000 ppm, emulsifiable formulation (Formulation Example 7), spray amount corresponding to 200 L/ha, wheat (NORIN No. 73), inoculated one day after, 7 days at 23° C.
Text: as §2, §3, §1, §4

| Structure (SMILES) | melting point [°C] | lesion area on plants relative to the lesion area of a non-treatment district (Sphaerotheca fuliginea) | lesion in the treatment district (control effect) (Puccinia striiformis) | lesion in the treatment district (control effect) (Erysiphe graminis) |
| --- | --- | --- | --- | --- |
| Cc1ccc(Br)cc1Cn1c(C(F)F)nn(C)c1=O | 107.6 | – | – | – |
| Cc1ccc(-c2ccccc2)cc1Cn1c(C(F)F)nn(C)c1=O [Compound 1, 5-difluoromethyl-2-methyl-4-(2-methyl-5-phenylbenzyl)-2,4-dihydro-3H-1,2,4-triazol-3-one] | 72.7 | not more than 10% | no lesion was recognized at all | no lesion was recognized at all |
